Test results reported in patent US6852499B2, “Luciferase detection reagent kits and luciferase detection method using the kit” (Toyo Ink Mfg. Co., Ltd., priority 2002, dated 2005).

Molecular target: T1, Coleoptera luciferase (Photinus pyralis, UniProt P08659)
T1 construct: purchased Toyo Ink Manufacturing Co., Ltd. PGL100
Assay: luciferin/luciferase luminescent reaction with an added sulfur reagent, measured on a luminometer
Type: biochemical
Settings: for RLU/200 (integrated quantity of light emitted for 200 seconds) / max RLU (maximum quantity of light emitted): 100 ng/mL luciferase; for max RLU (maximum quantity of light emitted): initial 200 seconds; for emission pattern (glow vs flash luminescence): reagent without thiol reagent, 200 seconds
Procedure: The luciferase used was one included in a commercially available kit (Toyo Ink Manufacturing Co., Ltd.; product No. PGL100).
A “luciferase luminescent reagent” containing 20 mM tricine, 1.07 mM (MgCO3)4Mg(OH)2·5H2O, 2.67 mM magnesium sulfate, 0.1 mM EDTA, 270 μM CoA, 470 μM luciferin and 530 μM adenosine triphosphate (ATP), pH 7.8 was prepared in accordance with the formulation described in the instructions included in “PicaGene Luminescent Kit” (Toyo Ink Manufacturing Co., Ltd.; product No. PGL100), except that 33.3 mM dithiothreitol (DTT) mentioned in the instructions was not added. To the “luciferase luminescent reagent” was added sodium diethyldithiocarbamate at final concentrations of 0 mM, 0.33 mM, 3.3 mM and 33.3 mM.
An enzyme solution containing 100 ng/mL of luciferase was collected in 10 μL in a measurement cuvette of a luminometer (Berthold, LB9506). To the enzyme solution was added 100 μL of each of the “luciferase luminescent reagents” prepared above. Immediately after the addition, the resulting mixed solution was loaded on the luminometer, and the quantity of light emitted was measured for the initial 200 seconds of the reagent addition to determine the maximum quantity of light emitted (RLU/sec) during the period of measurement and the integrated quantity of light emitted for 200 seconds (RLU/200 sec) (Table 2).
(§1) A “luciferase luminescent reagent” containing 20 mM tricine, 1.07 mM (MgCO3)4Mg(OH)2·5H2O, 2.67 mM magnesium sulfate, 0.1 mM EDTA, 270 μM CoA, 470 μM luciferin and 530 μM adenosine triphosphate (ATP), pH 7.8 was prepared in accordance with the formulation described in the instructions included in “PicaGene Luminescent Kit” (Toyo Ink Manufacturing Co., Ltd.; product No. PGL100), except that 33.3 mM dithiothreitol (DTT) mentioned in the instructions was not added.
A “luciferase luminescent reagent” containing 20 mM tricine, 1.07 mM (MgCO3)4Mg(OH)2·5H2O, 2.67 mM magnesium sulfate, 0.1 mM EDTA, 270 μM CoA, 470 μM luciferin and 530 μM adenosine triphosphate (ATP), pH 7.8 was prepared in accordance with the formulation described in the instructions included in “PicaGene Luminescent Kit” (Toyo Ink Manufacturing Co., Ltd.; product No. PGL100), except that 33.3 mM dithiothreitol (DTT) mentioned in the instructions was not added. To the “luciferase luminescent reagent” was added potassium xanthogenate at final concentrations of 0 mM, 0.33 mM 3.3 mM and 33.3 mM.
To the enzyme solution was added 100 μL of each of the “luciferase luminescent reagents” prepared above. Immediately after the addition, the resulting mixed solution was loaded on the luminometer, and the quantity of light emitted was measured for the initial 200 seconds of the reagent addition to determine the maximum quantity of light emitted (RLU/sec) during the period of measurement and the integrated quantity of light emitted for 200 seconds (RLU/200 sec) (Table 2).
A “luciferase luminescent reagent” containing 20 mM tricine, 1.07 mM (MgCO3)4Mg(OH)2·5H2O, 2.67 mM magnesium sulfate, 0.1 mM EDTA, 270 μM CoA, 470 μM luciferin and 530 μM adenosine triphosphate (ATP), pH 7.8 was prepared in accordance with the formulation described in the instructions included in “PicaGene Luminescent Kit” (Toyo Ink Manufacturing Co., Ltd.; product No. PGL100), except that 33.3 mM dithiothreitol (DTT) mentioned in the instructions was not added. To the “luciferase luminescent reagent” was added 2-mercaptobenzothiazole at final concentrations of 0 mM, 0.33 mM 3.3 mM and 33.3 mM.
as §1

T1 sequence (P08659 whole entry): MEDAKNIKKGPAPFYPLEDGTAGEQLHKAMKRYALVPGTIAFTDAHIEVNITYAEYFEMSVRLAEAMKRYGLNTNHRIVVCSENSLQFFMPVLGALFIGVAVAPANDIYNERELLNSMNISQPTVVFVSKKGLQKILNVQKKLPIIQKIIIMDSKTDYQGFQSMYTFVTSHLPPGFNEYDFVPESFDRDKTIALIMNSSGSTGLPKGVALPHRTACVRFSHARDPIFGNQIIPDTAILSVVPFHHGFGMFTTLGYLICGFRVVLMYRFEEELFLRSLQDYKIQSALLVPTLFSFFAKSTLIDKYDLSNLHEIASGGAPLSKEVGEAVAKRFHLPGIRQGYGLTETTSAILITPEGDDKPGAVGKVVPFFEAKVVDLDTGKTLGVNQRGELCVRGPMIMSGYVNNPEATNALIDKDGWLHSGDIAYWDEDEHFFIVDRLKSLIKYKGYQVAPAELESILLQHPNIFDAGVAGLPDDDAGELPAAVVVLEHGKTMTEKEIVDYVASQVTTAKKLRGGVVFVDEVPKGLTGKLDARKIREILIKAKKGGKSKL

Structure (SMILES)	change of the maximum quantity of light emitted (RLU/sec) as compared with the system containing no reagent (0 mM) (0.33 mM and 3.3 mM)	increase in the integrated quantity of light emitted (RLU/200 sec) as compared with the system containing no reagent (0 mM) (0.33 mM and 3.3 mM)	maximum and integrated quantity of light emitted relative to the systems at lower concentrations (33.3 mM vs 0.33 mM, 3.3 mM)	RLU/200 (integrated quantity of light emitted for 200 seconds) (final concentration 0.33 mM)	max RLU (maximum quantity of light emitted) (final concentration 0.33 mM)	RLU/200 (integrated quantity of light emitted for 200 seconds) (final concentration 3.3 mM)	max RLU (maximum quantity of light emitted) (final concentration 3.3 mM)	RLU/200 (integrated quantity of light emitted for 200 seconds) (final concentration 33.3 mM)	max RLU (maximum quantity of light emitted) (final concentration 33.3 mM)	emission pattern (glow vs flash luminescence)	maximum and integrated quantity of light emitted relative to the system at a lower concentration (33.3 mM vs 3.3 mM)	change of the maximum quantity of light emitted (RLU/sec) as compared with the system containing no reagent (0 mM) (0.33 mM)	increase in the integrated quantity of light emitted (RLU/200 sec) as compared with the system containing no reagent (0 mM) (0.33 mM)	maximum and integrated quantity of light emitted relative to the system at a lower concentration (33.3 mM vs 0.33 mM)	integrated quantity of light emitted (RLU/for 200 sec), dependence on concentration (0 to 33.3 mM)	maximum quantity of light emitted relative to the value for the system without DTT (33.3 mM)
CCN(CC)C(=S)[S-].[Na+] [Sodium diethyldithiocarbamate, sodium diethyldithiocarbamate]	increased only slightly	about 1.7 fold	about two-fifths	592,116,224 RLU/200 sec	3,267,710 RLU/sec	611,260,800 RLU/200 sec	3,141,880 RLU/sec	246,535,408 RLU/200 sec	1,261,630 RLU/sec	glow luminescence						
Sc1nc2ccccc2s1 [2-mercaptobenzothiazole]	increased only slightly	about 1.7 fold		492,116,224 RLU/200 sec	3,267,710 RLU/sec	622,578,816 RLU/200 sec	3,410,350 RLU/sec	421,084,568 RLU/200 sec	2,603,090 RLU/sec	glow luminescence	nearly two-thirds					
CCOC(=S)[S-].[K+] [Potassium xanthogenate, potassium xanthogenate]				616,747,200 RLU/200 sec	3,232,620 RLU/sec	92,549,720 RLU/200 sec	473,070 RLU/sec	4,519,292 RLU/200 sec	24,210 RLU/sec	glow luminescence		increased only slightly	about 1.7 fold	about one-thirteenth		
O[C@H](CS)[C@H](O)CS (racemic) [DTT, dithiothreitol, reference compound]	little difference			511,723,424 RLU/200 sec	3,359,620 RLU/sec	579,940,160 RLU/200 sec	3,221,070 RLU/sec	667,250,048 RLU/200 sec	3,434,180 RLU/sec						increased with increasing DTT concentration	1.8 times
